Measured values taken from PMC9059924 (RSC Advances, 2019).

Assays:
Type in all cases: cell-based, rat
primary cortical neurons = assay: Viability of normal primary cortical neurons after administration; settings: 100 μM; for Cell survival rate of primary neurons after administration: normal neurons, control 1.00, mean ± SE
[1] = system: primary cortical neurons (OGD model); assay: Cell viability of primary cortical neurons in oxygen glucose deprivation; settings: for Improvement of survival rate of neuron (OGD 12 h), in words: P < 0.05 vs model; for Sample in 100 μM: cytotoxic at this concentration: footnote c; for Neuroprotective activity of BA compounds in OGD model, in words: text SAR; for Cell survival rate of primary neurons (OGD 12 h), Edaravone: positive drug 100 μM
[2] = system: primary cortical neurons (OGD model); assay: Morphology of OGD neurons under inverted microscope; settings: OGD 12 h

Row | Compound | Cell survival rate of primary neurons after administration (primary cortical neurons) [%] | Sample in 100 μM: cytotoxic at this concentration ([1]; BA compounds) | also measured
1 | COc1ccccc1NC(=O)/C=C/c1ccc2c(c1)C=CC(C)(C)O2 [BN-04, (E)-3-(2,2-Dimethyl-2H-1-benzopyran-6-yl)-N-(2-methoxyphenyl)acrylamide] | 0.88 ± 0.038 |  | 
2 | COc1ccc(NC(=O)/C=C/c2ccc3c(c2)C=CC(C)(C)O3)cc1 [BN-02, (E)-3-(2,2-Dimethyl-2H-1-benzopyran-6-yl)-N-(4-methoxyphenyl)acrylamide] | 0.93 ± 0.0080 |  | 
3 | COc1ccc(/C=C/C(=O)Nc2ccc3c(c2)C=CC(C)(C)O3)cc1O [BA-03, (E)-N-(2,2-Dimethyl-2H-1-benzopyran-6-yl)-3-(3-hydroxy-4-methoxyphenyl)acrylamide] | 0.77 ± 0.012 | — ^c | Cytotoxicity to normal neurons (reduced cell survival rate), in words (primary cortical neurons): cytotoxic; Improvement of survival rate of neuron (OGD 12 h), in words ([1]; 1 μM): significantly improve the survival rate of neuron
4 | CC1(C)C=Cc2cc(NC(=O)/C=C/c3ccccc3)ccc2O1 [BA-07, (E)-N-(2,2-Dimethyl-2H-1-benzopyran-6-yl)-3-phenylacrylamide] | 0.78 ± 0.046 | — ^c | Cytotoxicity to normal neurons (reduced cell survival rate), in words (primary cortical neurons): cytotoxic; Improvement of survival rate of neuron (OGD 12 h), in words ([1]; 1 μM): significantly improve the survival rate of neuron
5 | COc1ccc(/C=C/C(=O)Nc2ccc3c(c2)C=CC(C)(C)O3)cc1 [BA-06, (E)-N-(2,2-Dimethyl-2H-1-benzopyran-6-yl)-3-(4-methoxyphenyl)acrylamide] | 0.86 ± 0.018 |  | 
6 | CC1(C)C=Cc2cc(NC(=O)/C=C/c3cccc4ccccc34)ccc2O1 [BA-08, (E)-N-(2,2-Dimethyl-2H-1-benzopyran-6-yl)-3-(naphthalen-1-yl)acrylamide] | 0.73 ± 0.025 | — ^c | Improvement of survival rate of neuron (OGD 12 h), in words ([1]; 1 μM): significantly improve the survival rate of neuron
7 | CC1(C)C=Cc2cc(NC(=O)/C=C/c3cccnc3)ccc2O1 [BA-09, (E)-N-(2,2-Dimethyl-2H-1-benzopyran-6-yl)-3-(pyridin-3-yl)acrylamide] | 0.49 ± 0.047 | — ^c | Improvement of survival rate of neuron (OGD 12 h), in words ([1]; 1 μM): significantly improve the survival rate of neuron; Neuroprotective activity of BA compounds in OGD model, in words ([1]; OGD 12 h): maintained the same biological activity
8 | COc1ccc(NC(=O)CC(Nc2ccc(OC)cc2)c2ccc3c(c2)C=CC(C)(C)O3)cc1 (stereo not drawn) [BN-09, 3-(2,2-Dimethyl-2H-1-benzopyran-6-yl)-N-(4-methoxyphenyl)-3-((4-methoxyphenyl)amino)propanamide] | 0.80 ± 0.047 |  | Sample in 100 μM: cytotoxic at this concentration ([1]; BN compounds): — ^c
9 | CC1(C)C=Cc2cc(NC(=O)/C=C/c3ccc(O)c(O)c3)ccc2O1 [BA-04, (E)-N-(2,2-Dimethyl-2H-1-benzopyran-6-yl)-3-(3,4-dihydroxyphenyl)acrylamide] | 0.56 ± 0.014 | — ^c | Cytotoxicity to normal neurons (reduced cell survival rate), in words (primary cortical neurons): cytotoxic; Neuroprotective activity of BA compounds in OGD model, in words ([1]; OGD 12 h): the activity was decreased or disappeared
10 | CC1(C)C=Cc2cc(NC(=O)/C=C/c3ccco3)ccc2O1 [BA-10, (E)-N-(2,2-Dimethyl-2H-1-benzopyran-6-yl)-3-(furan-2-yl)acrylamide] | 0.84 ± 0.026 |  | Neuroprotective activity of BA compounds in OGD model, in words ([1]; OGD 12 h): lost neuroprotective effect
11 | CC1(C)C=Cc2cc(NC(=O)/C=C/c3cccs3)ccc2O1 [BA-11, (E)-N-(2,2-Dimethyl-2H-1-benzopyran-6-yl)-3-(thiophen-2-yl)acrylamide] | 0.89 ± 0.054 |  | Improvement of survival rate of neuron (OGD 12 h), in words ([1]; 1 μM): significantly improve the survival rate of neuron; Neuroprotective activity of BA compounds in OGD model, in words ([1]; OGD 12 h): maintained the same biological activity
12 | COc1cccc(NC(=O)/C=C/c2ccc3c(c2)C=CC(C)(C)O3)c1 [BN-03, (E)-3-(2,2-Dimethyl-2H-1-benzopyran-6-yl)-N-(3-methoxyphenyl)acrylamide] | 0.89 ± 0.02 |  | 
13 | 5-methyl-2-phenyl-1,2-dihydropyrazol-3-one [Edaravone, reference compound] |  |  | Cell survival rate of primary neurons (OGD 12 h), Edaravone ([1]; BA table, model 0.49 ± 0.094, mean ± SE): 0.54 ± 0.0069 %; Cell survival rate of primary neurons (OGD 12 h), Edaravone ([1]; BN table, model 0.41 ± 0.014, mean ± SE): 0.56 ± 0.015 %
14 | CC1(C)C=Cc2cc(NC(=O)/C=C/c3ccc4c(c3)OCO4)ccc2O1 [BA-05, (E)-N-(2,2-Dimethyl-2H-1-benzopyran-6-yl)-3-(1,3-benzodioxole-5-yl)acrylamide] | 0.85 ± 0.037 |  | 
15 | CC1(C)C=Cc2cc(/C=C/C(=O)N3CCN(c4ccc(O)cc4)CC3)ccc2O1 [BN-07, (E)-3-(2,2-Dimethyl-2H-1-benzopyran-6-yl)-1-(4-(4-hydroxyphenyl)piperazin-1-yl)prop-2-en-1-one] | 0.96 ± 0.0063 |  | Neuroprotective effect of BN compounds on survival of OGD neurons, in words ([1]; OGD 12 h, compared with model group / edaravone): good efficacy in neurons of OGD model; Morphology of neurons induced by OGD, in words [2]: significantly improved the morphology of neurons
16 | 3-(2,2-Dimethyl-2H-1-benzopyran-6-yl)-N-(3-methoxyphenyl)-3-((3-methoxyphenyl)amino)propenamide [BN-10] | 0.81 ± 0.058 |  | Cell survival rate of primary neurons (OGD 12 h), Sample in 1 μM ([1]; BN compounds, 1 μM, model 0.41 ± 0.014, control 1.00, mean ± SE): 0.81 ± 0.0090 %; Cell survival rate of primary neurons (OGD 12 h), Sample in 30 μM ([1]; BN compounds, 30 μM, model 0.41 ± 0.014, control 1.00, mean ± SE): 0.77 ± 0.0035 %; Sample in 100 μM: cytotoxic at this concentration ([1]; BN compounds): — ^c
17 | CC1(C)C=Cc2cc(/C=C/C(=O)Nc3ccccc3)ccc2O1 [BN-01, (E)-3-(2,2-Dimethyl-2H-1-benzopyran-6-yl)-N-phenylacrylamide] | 0.85 ± 0.038 |  | 
18 | CC1(C)C=Cc2cc(NC(=O)/C=C/c3ccc(O)cc3)ccc2O1 [BA-01, (E)-N-(2,2-Dimethyl-2H-1-benzopyran-6-yl)-3-(4-hydroxyphenyl)acrylamide] | 0.75 ± 0.021 | — ^c | Cytotoxicity to normal neurons (reduced cell survival rate), in words (primary cortical neurons): cytotoxic; Neuroprotective activity of BA compounds in OGD model, in words ([1]; OGD 12 h): the activity was decreased or disappeared
19 | CC1(C)C=Cc2cc(C(CC(=O)Nc3ccccc3)Nc3ccccc3)ccc2O1 (stereo not drawn) [BN-08, 3-(2,2-Dimethyl-2H-1-benzopyran-6-yl)-N-phenyl-3-(phenylamino)propanamide] | 0.99 ± 0.019 |  | 
20 | COc1cc(/C=C/C(=O)Nc2ccc3c(c2)C=CC(C)(C)O3)ccc1O [BA-02, (E)-N-(2,2-Dimethyl-2H-1-benzopyran-6-yl)-3-(4-hydroxy-3-methoxyphenyl)acrylamide] | 0.76 ± 0.025 | — ^c | Cytotoxicity to normal neurons (reduced cell survival rate), in words (primary cortical neurons): cytotoxic
21 | CC1(C)C=Cc2cc(/C=C/C(=O)Oc3ccccc3)ccc2O1 [BN-05, (E)-3-(2,2-Dimethyl-2H-1-benzopyran-6-yl)-acrylate-phenyl ester] | 0.86 ± 0.023 |  | 
22 | COc1ccc(N2CCN(C(=O)/C=C/c3ccc4c(c3)C=CC(C)(C)O4)CC2)cc1 [BN-06, (E)-3-(2,2-Dimethyl-2H-1-benzopyran-6-yl)-1-(4-(4-methoxyphenyl)piperazin-1-yl)prop-2-en-1-one] | 0.91 ± 0.028 |  | 
